# Target: T1, CETP (Homo sapiens, UniProt P11597)
# T1 construct: from tissue; host or cells: human plasma from healthy men
# T1 sequence (P11597 18-493): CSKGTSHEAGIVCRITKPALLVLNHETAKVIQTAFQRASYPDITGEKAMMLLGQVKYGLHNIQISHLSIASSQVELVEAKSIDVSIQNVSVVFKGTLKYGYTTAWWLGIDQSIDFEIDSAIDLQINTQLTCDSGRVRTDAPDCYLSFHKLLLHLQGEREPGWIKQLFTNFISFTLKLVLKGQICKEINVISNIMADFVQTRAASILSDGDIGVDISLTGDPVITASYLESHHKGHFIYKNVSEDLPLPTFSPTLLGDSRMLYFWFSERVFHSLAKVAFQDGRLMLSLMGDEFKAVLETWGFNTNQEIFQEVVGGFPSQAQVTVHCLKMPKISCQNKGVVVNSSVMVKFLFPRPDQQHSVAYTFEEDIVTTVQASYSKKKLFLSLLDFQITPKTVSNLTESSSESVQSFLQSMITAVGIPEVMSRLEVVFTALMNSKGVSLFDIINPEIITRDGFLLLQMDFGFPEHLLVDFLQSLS
# Assay: Inhibitory activity against CETP in human plasma (Roar CETP activity kit, fluorescence)
# Format: biochemical
# Conditions: plasma from healthy men diluted 1:10 in assay buffer, 37° C., 3 hrs, fluorescence 465/535 nm; read-out: IC50, Inhibition of CETP Activity in Human Plasma
# Method: A CETP activity kit (#RB-CETP) was purchased from Roar […], Inc. A donor and an acceptor (each, 4 ul), a 10× assay buffer (177 ul), and each of dilutions of test compounds in dimethylsulfoxide (DMSO, Sigma-Aldrich) (0.01 nM˜10000 nM) were added to each well of black round-bottom 96-well plates (Corning #3792). Plasma samples from healthy men were diluted in the assay buffer (1:10=plasma:assay buffer), and added to each well. The plates were sealed with a sealing film (Sigma-Aldrich, #Z369659), and incubated in a 37° C. incubator microplate shaker (#SLST-3, Seolin Bio) for 3 hrs. After removal of the sealing film, fluorescence was read on Spectra Max Gemini EM (Molecular devices) with an excitation wavelength of 465 nm and an emission wavelength of 535 nm. Measurements were calculated according to the following formula. Calculated value=(Fluorescence Intensity with both compound and plasma−Fluorescence Intensity with compound but without plasma)/(Fluorescence Intensity with plasma but without compound−Fluorescence Intensity with neither compound nor plasma)
# From the calculated value, a sigmoidal curve (y=start+(end-start)x^n/k^n+x^n) was drawn using Origin Software (OriginLab Corporation, ver. 8.0724) to obtain IC50 values.
row,SMILES,IC50
1,"CCN(c1ncc(C(F)(F)F)cc1CN1C(=O)O[C@H](c2cc(C(F)(F)F)cc(C(F)(F)F)c2)[C@@H]1C)C1CCN(S(C)(=O)=O)CC1 [Example 32, (4S,5R)-5-[3,5-bis(trifluoromethyl)phenyl]-4-methyl-3-({[2-(ethyl)(1-methanesulfonylpiperidin-4-yl)amino]-5-trifluoromethylpyridin-3-yl}methyl)-oxazolidin-2-one]",410 nM
2,"CCN(c1ncc(C(F)(F)F)cc1CN1C(=O)O[C@H](c2cc(C(F)(F)F)cc(C(F)(F)F)c2)[C@@H]1C)C1CCN(C(C)=O)CC1 [Example 33, (4S,5R)-5-[3,5-bis(trifluoromethyl)phenyl]-4-methyl-3-({[2-(ethyl)(1-acetylpiperidin-4-yl)amino]-5-(trifluoromethyl)pyridin-3-yl}methyl)-oxazolidin-2-one]",39.9 nM
3,"CCC(=O)N1CCC(N(CC)c2ncc(C(F)(F)F)cc2CN2C(=O)O[C@H](c3cc(C(F)(F)F)cc(C(F)(F)F)c3)[C@@H]2C)CC1 [Example 34, (4S,5R)-5-[3,5-bis(trifluoromethyl)phenyl]-4-methyl-3-({[2-(ethyl)(1-propionylpiperidin-4-yl)amino]-5-(trifluoromethyl)pyridin-3-yl}methyl)-oxazolidin-2-one]",62 nM
4,"CCN(c1ncc(C(F)(F)F)cc1CN1C(=O)O[C@H](c2cc(C(F)(F)F)cc(C(F)(F)F)c2)[C@@H]1C)C1CCN(C(=O)OC)CC1 [Example 35, methyl 4-{[3-({(4S,5R)-5-[3,5-bis(trifluoromethyl)phenyl]-4-methyl-2-oxo-oxazolidin-3-yl}methyl)-5-(trifluoromethyl)pyridin-2-yl](ethyl)amino}piperidine-1-carboxylate]",20 nM
5,"CCOC(=O)N1CCC(N(CC)c2ncc(C(F)(F)F)cc2CN2C(=O)O[C@H](c3cc(C(F)(F)F)cc(C(F)(F)F)c3)[C@@H]2C)CC1 [Example 36, ethyl 4-{[3-({(4S,5R)-5-[3,5-bis(trifluoromethyl)phenyl]-4-methyl-2-oxo-oxazolidin-3-yl}methyl)-5-(trifluoromethyl)pyridin-2-yl](ethyl)amino}piperidine-1-carboxylate]",220 nM
6,"CCN(c1ncc(C(F)(F)F)cc1CN1C(=O)O[C@H](c2cc(C(F)(F)F)cc(C(F)(F)F)c2)[C@@H]1C)C1CCN(C(=O)N(C)C)CC1 [Example 37, methyl 4-{[3-({(4S,5R)-5-[3,5-bis(trifluoromethyl)phenyl]-4-methyl-2-oxo-oxazolidin-3-yl}methyl)-5-(trifluoromethyl)pyridin-2-yl](ethyl)amino}-N,N-dimethylpiperidine-1-carboxamide]",498 nM
7,"CCN(c1ncc(C(F)(F)F)cc1CN1C(=O)O[C@H](c2cc(C(F)(F)F)cc(C(F)(F)F)c2)[C@@H]1C)C1CCN(CC(=O)OC)CC1 [Example 38, methyl 2-(4-{[3-({(4S,5R)-5-[3,5-bis(trifluoromethyl)phenyl]-4-methyl-2-oxo-oxazolidin-3-yl}methyl)-5-(trifluoromethyl)pyridin-2-yl](ethyl)amino}piperidin-1-yl)acetate]",19.3 nM
8,"CCN(c1ncc(C(F)(F)F)cc1CN1C(=O)O[C@H](c2cc(C(F)(F)F)cc(C(F)(F)F)c2)[C@@H]1C)C1CCN(CC(=O)O)CC1 [Example 39, 2-(4-{[3-({(4S,5R)-5-[3,5-bis(trifluoromethyl)phenyl]-4-methyl-2-oxo-oxazolidin-3-yl}methyl)-5-(trifluoromethyl)pyridin-2-yl](ethyl)amino}piperidin-1-yl)acetic acid]",492 nM
9,"CCN(c1ncc(Br)cc1CN1C(=O)O[C@H](c2cc(C(F)(F)F)cc(C(F)(F)F)c2)[C@@H]1C)C1CCOCC1 [Example 40, (4S,5R)-5-[3,5-bis(trifluoromethyl)phenyl]-4-methyl-3-({[2-(ethyl)(tetrahydro-2H-pyran-4-yl)amino]-5-bromopyridin-3-yl}methyl)-oxazolidin-2-one]",19.8 nM
10,"CCN(c1ncc(N2CCCC2)cc1CN1C(=O)O[C@H](c2cc(C(F)(F)F)cc(C(F)(F)F)c2)[C@@H]1C)C1CCOCC1 [Example 41, (4S,5R)-5-[3,5-bis(trifluoromethyl)phenyl]-4-methyl-3-({[2-(ethyl)(tetrahydro-2H-pyran-4-yl)amino]-5-(pyrrolidin-1-yl)pyridin-3-yl}methyl)-oxazolidin-2-one]",2.4 nM
11,"CCN(c1ncc(N2CCC2)cc1CN1C(=O)O[C@H](c2cc(C(F)(F)F)cc(C(F)(F)F)c2)[C@@H]1C)C1CCOCC1 [Example 43, (4S,5R)-5-[3,5-bis(trifluoromethyl)phenyl]-4-methyl-3-({[2-(ethyl)(tetrahydro-2H-pyran-4-yl)amino]-5-(azetidin-1-yl)pyridin-3-yl}methyl)-oxazolidin-2-one]",7.9 nM
12,"CCN(c1ncc(N2CCCCC2)cc1CN1C(=O)O[C@H](c2cc(C(F)(F)F)cc(C(F)(F)F)c2)[C@@H]1C)C1CCOCC1 [Example 44, (4S,5R)-5-[3,5-bis(trifluoromethyl)phenyl]-4-methyl-3-({[2-(ethyl)(tetrahydro-2H-pyran-4-yl)amino]-5-(piperidin-1-yl)pyridin-3-yl}methyl)-oxazolidin-2-one]",57 nM
13,"CCN(c1ncc(-c2ccccc2)cc1CN1C(=O)O[C@H](c2cc(C(F)(F)F)cc(C(F)(F)F)c2)[C@@H]1C)C1CCOCC1 [Example 45, (4S,5R)-5-[3,5-bis(trifluoromethyl)phenyl]-4-methyl-3-({[2-(ethyl)(tetrahydro-2H-pyran-4-yl)amino]-5-phenylpyridin-3-yl}methyl)-oxazolidin-2-one]",26.9 nM
14,"CCN(c1ncc(-c2cccc(C)c2)cc1CN1C(=O)O[C@H](c2cc(C(F)(F)F)cc(C(F)(F)F)c2)[C@@H]1C)C1CCOCC1 [Example 46, (4S,5R)-5-[3,5-bis(trifluoromethyl)phenyl]-4-methyl-3-({[2-(ethyl)(tetrahydro-2H-pyran-4-yl)amino]-5-(3-methylphenyl)pyridin-3-yl}methyl)-oxazolidin-2-one]",28 nM
15,"CCN(c1ncc(-c2cccc(F)c2)cc1CN1C(=O)O[C@H](c2cc(C(F)(F)F)cc(C(F)(F)F)c2)[C@@H]1C)C1CCOCC1 [Example 47, (4S,5R)-5-[3,5-bis(trifluoromethyl)phenyl]-4-methyl-3-({[2-(ethyl)(tetrahydro-2H-pyran-4-yl)amino]-5-(3-fluorophenyl)pyridin-3-yl}methyl)-oxazolidin-2-one]",45 nM
16,"CCOc1cccc(-c2cnc(N(CC)C3CCOCC3)c(CN3C(=O)O[C@H](c4cc(C(F)(F)F)cc(C(F)(F)F)c4)[C@@H]3C)c2)c1 [Example 48, (4S,5R)-5-[3,5-bis(trifluoromethyl)phenyl]-4-methyl-3-({[2-(ethyl)(tetrahydro-2H-pyran-4-yl)amino]-5-(3-ethoxyphenyl)pyridin-3-yl}methyl)-oxazolidin-2-one]",133 nM
17,"CCN(c1ncc(-c2ccco2)cc1CN1C(=O)O[C@H](c2cc(C(F)(F)F)cc(C(F)(F)F)c2)[C@@H]1C)C1CCOCC1 [Example 49, (4S,5R)-5-[3,5-bis(trifluoromethyl)phenyl]-4-methyl-3-({[2-(ethyl)(tetrahydro-2H-pyran-4-yl)amino]-5-(furan-2-yl)pyridin-3-yl}methyl)-oxazolidin-2-one]",23.7 nM
18,CCN(c1ncc(-c2c(C)noc2C)cc1CN1C(=O)O[C@H](c2cc(C(F)(F)F)cc(C(F)(F)F)c2)[C@@H]1C)C1CCOCC1 [Example 51],12.7 nM
19,"CCN(c1ncccc1CN1C(=O)O[C@H](c2cc(C(F)(F)F)cc(C(F)(F)F)c2)[C@@H]1C)C1CCOCC1 [Example 52, (4S,5R)-5-[3,5-bis(trifluoromethyl)phenyl]-4-methyl-3-({[2-(ethyl)(tetrahydro-2H-pyran-4-yl)amino]-pyridin-3-yl}methyl)-oxazolidin-2-one]",73.4 nM
20,"CCN(c1ncc(C(F)(F)F)cc1CN1C(=O)O[C@H](c2cc(C(F)(F)F)cc(C(F)(F)F)c2)[C@@H]1C)C1CCCCC1 [Example 53, (4S,5R)-5-[3,5-bis(trifluoromethyl)phenyl]-4-methyl-3-({[2-(ethyl)(cyclohexyl)amino]-5-(trifluoromethyl)pyridin-3-yl}methyl)-oxazolidin-2-one]",5.2 nM
21,CCN(c1ncc(C#N)cc1CN1C(=O)O[C@H](c2cc(C(F)(F)F)cc(C(F)(F)F)c2)[C@@H]1C)C1CCCCC1 [Example 54],19 nM
22,"CCN(c1ncc(OS(C)(=O)=O)cc1CN1C(=O)O[C@H](c2cc(C(F)(F)F)cc(C(F)(F)F)c2)[C@@H]1C)C1CCCCC1 [Example 55, 5-{[(4S,5R)-5-[3,5-bis(trifluoromethyl)phenyl]-4-methyl-2-oxo-oxazolidin-3-yl]methyl}-6-[(cyclohexyl)(ethyl)amino]-pyridin-3-yl methanesulfonate]",11.1 nM
